Laboratory results taken from ChEMBL document CHEMBL2434896, “Carbonic anhydrase inhibitors. Synthesis of heterocyclic 4-substituted pyridine-3-sulfonamide derivatives and their inhibition of the human cytosolic isozymes I and II and transmembrane tumor-associated isozymes IX and XII” (Eur J Med Chem, 2013).
Active and inactive are the calls of the source. The calls are words filed in the database; no cut-off is given here.

What was measured:
UACC-62 = assay: Growth inhibition of human UACC62 cells at 10 uM after 48 hrs by sulforhodamine B assay; type: functional; conditions: UACC-62, 48 h, read-out: GI
UACC-257 = assay: Growth inhibition of human UACC257 cells at 10 uM after 48 hrs by sulforhodamine B assay; type: functional; conditions: UACC-257, 48 h, read-out: GI
SF-539 = assay: Growth inhibition of human SF539 cells at 10 uM after 48 hrs by sulforhodamine B assay; type: functional
Carbonic anhydrase 9 = Carbonic anhydrase 9 (Homo sapiens, UniProt Q16790); assay: Inhibition of human carbonic anhydrase 9 after 15 mins by stopped flow CO2 hydration assay
OVCAR-8 = assay: Growth inhibition of human OVCAR8 cells at 10 uM after 48 hrs by sulforhodamine B assay; type: functional
ACHN = assay: Growth inhibition of human ACHN cells at 10 uM after 48 hrs by sulforhodamine B assay; type: functional
BT-549 = assay: Growth inhibition of human BT549 cells at 10 uM after 48 hrs by sulforhodamine B assay; type: functional
MDA-MB-468 = assay: Growth inhibition of human MDA-MB-468 cells at 10 uM after 48 hrs by sulforhodamine B assay; type: functional
HL-60(TB) = assay: Growth inhibition of human HL-60(TB) cells at 10 uM after 48 hrs by sulforhodamine B assay; type: functional; conditions: HL-60, 48 h, read-out: GI
HCT-116 = assay: Growth inhibition of human HCT116 cells at 10 uM after 48 hrs by sulforhodamine B assay; type: functional
786-0 = assay: Growth inhibition of human 786-0 cells at 10 uM after 48 hrs by sulforhodamine B assay; type: functional
NCI/ADR-RES = assay: Growth inhibition of human NCI-ADR-RES cells at 10 uM after 48 hrs by sulforhodamine B assay; type: functional
MDA-MB-435 = assay: Growth inhibition of human MDA-MB-435 cells at 10 uM after 48 hrs by sulforhodamine B assay; type: functional
SN12C = assay: Growth inhibition of human SN12C cells at 10 uM after 48 hrs by sulforhodamine B assay; type: functional
NCI-H460 = assay: Growth inhibition of human NCI-H460 cells at 10 uM after 48 hrs by sulforhodamine B assay; type: functional
MDA-MB-231 = assay: Growth inhibition of human MDA-MB-231 cells at 10 uM after 48 hrs by sulforhodamine B assay; type: functional; conditions: MDA-MB-231, 48 h, read-out: GI
MOLT-4 = assay: Growth inhibition of human MOLT4 cells at 10 uM after 48 hrs by sulforhodamine B assay; type: functional; conditions: MOLT-4, 48 h, read-out: GI
SW-620 = assay: Growth inhibition of human SW620 cells at 10 uM after 48 hrs by sulforhodamine B assay; type: functional
NCI-H23 = assay: Growth inhibition of human NCI-H23 cells at 10 uM after 48 hrs by sulforhodamine B assay; type: functional
SF-268 = assay: Growth inhibition of human SF268 cells at 10 uM after 48 hrs by sulforhodamine B assay; type: functional
KM12 = assay: Growth inhibition of human KM12 cells at 10 uM after 48 hrs by sulforhodamine B assay; type: functional
U-251 = assay: Growth inhibition of human U251 cells at 10 uM after 48 hrs by sulforhodamine B assay; type: functional; conditions: U-251, 48 h, read-out: GI
DU-145 = assay: Growth inhibition of human DU145 cells at 10 uM after 48 hrs by sulforhodamine B assay; type: functional
SK-OV-3 = assay: Growth inhibition of human SKOV3 cells at 10 uM after 48 hrs by sulforhodamine B assay; type: functional
HCT-15 = assay: Growth inhibition of human HCT15 cells at 10 uM after 48 hrs by sulforhodamine B assay; type: functional
TK-10 = assay: Growth inhibition of human TK10 cells at 10 uM after 48 hrs by sulforhodamine B assay; type: functional
OVCAR-3 = assay: Growth inhibition of human OVCAR3 cells at 10 uM after 48 hrs by sulforhodamine B assay; type: functional
CAKI-1 = assay: Growth inhibition of human CAKI-1 cells at 10 uM after 48 hrs by sulforhodamine B assay; type: functional
MCF7 = assay: Growth inhibition of human MCF7 cells at 10 uM after 48 hrs by sulforhodamine B assay; type: functional
SNB-75 = assay: Growth inhibition of human SNB75 cells at 10 uM after 48 hrs by sulforhodamine B assay; type: functional; conditions: SNB-75, 48 h, read-out: GI
NCI-H226 = assay: Growth inhibition of human NCI-H226 cells at 10 uM after 48 hrs by sulforhodamine B assay; type: functional
SR = assay: Growth inhibition of human SR cells at 10 uM after 48 hrs by sulforhodamine B assay; type: functional; conditions: read-out: GI
A549 = assay: Growth inhibition of human A549/ATCC cells at 10 uM after 48 hrs by sulforhodamine B assay; type: functional
HT-29 = assay: Growth inhibition of human HT-29 cells at 10 uM after 48 hrs by sulforhodamine B assay; type: functional
LOX IMVI = assay: Growth inhibition of human LOXIMVI cells at 10 uM after 48 hrs by sulforhodamine B assay; type: functional
RXF 393 = assay: Growth inhibition of human RXF393 cells at 10 uM after 48 hrs by sulforhodamine B assay; type: functional
HOP-62 = assay: Growth inhibition of human HOP62 cells at 10 uM after 48 hrs by sulforhodamine B assay; type: functional
[1] = Growth inhibition of human HCC2998 cells at 10 uM after 48 hrs by sulforhodamine B assay; type: functional; conditions: HCC 2998, 48 h, read-out: GI
SK-MEL-5 = assay: Growth inhibition of human SK-MEL-5 cells at 10 uM after 48 hrs by sulforhodamine B assay; type: functional
SNB-19 = assay: Growth inhibition of human SNB19 cells at 10 uM after 48 hrs by sulforhodamine B assay; type: functional
CCRF-CEM = assay: Growth inhibition of human CCRF-CEM cells at 10 uM after 48 hrs by sulforhodamine B assay; type: functional; conditions: read-out: GI
OVCAR-5 = assay: Growth inhibition of human OVCAR5 cells at 10 uM after 48 hrs by sulforhodamine B assay; type: functional
NCI-H522 = assay: Growth inhibition of human NCI-H522 cells at 10 uM after 48 hrs by sulforhodamine B assay; type: functional; conditions: NCI-H522, 48 h, read-out: GI
RPMI-8226 = assay: Growth inhibition of human RPMI8226 cells at 10 uM after 48 hrs by sulforhodamine B assay; type: functional; conditions: RPMI-8226, 48 h, read-out: GI
SK-MEL-2 = assay: Growth inhibition of human SK-MEL-2 cells at 10 uM after 48 hrs by sulforhodamine B assay; type: functional
HOP-92 = assay: Growth inhibition of human HOP92 cells at 10 uM after 48 hrs by sulforhodamine B assay; type: functional; conditions: HOP-92, 48 h, read-out: GI
SF-295 = assay: Growth inhibition of human SF295 cells at 10 uM after 48 hrs by sulforhodamine B assay; type: functional
EKVX = assay: Growth inhibition of human EKVX cells at 10 uM after 48 hrs by sulforhodamine B assay; type: functional
COLO 205 = assay: Growth inhibition of human COLO205 cells at 10 uM after 48 hrs by sulforhodamine B assay; type: functional
SK-MEL-28 = assay: Growth inhibition of human SK-MEL-28 cells at 10 uM after 48 hrs by sulforhodamine B assay; type: functional, cell-based
T47D = assay: Growth inhibition of human T47D cells at 10 uM after 48 hrs by sulforhodamine B assay; type: functional
M14 = assay: Growth inhibition of human M14 cells at 10 uM after 48 hrs by sulforhodamine B assay; type: functional
Hs-578T = assay: Growth inhibition of human Hs 578T cells at 10 uM after 48 hrs by sulforhodamine B assay; type: functional

In the case of CSc1nc(N)n(-c2ccncc2S(N)(=O)=O)n1, the inhibition of growth at 10 µM (UACC-62) is reported as 4%, the inhibition of growth at 10 µM (UACC-257) is reported as 7% and the “growth inhibition (GI)” value (SF-539) is reported as “inactive”. The Ki (Carbonic anhydrase 9) was 65.4 nM, the “growth inhibition (GI)” value (OVCAR-8) was “inactive” and the “growth inhibition (GI)” value (ACHN) was “inactive”. For the same compound, the “growth inhibition (GI)” value (BT-549) was “inactive”, the “growth inhibition (GI)” value (MDA-MB-468) was “inactive” and the inhibition of growth at 10 µM (HL-60(TB)) was 3%. The “growth inhibition (GI)” value (HCT-116) was “inactive”, the “growth inhibition (GI)” value (786-0) was “inactive” and the “growth inhibition (GI)” value (NCI/ADR-RES) was “inactive”. For the same compound, the “growth inhibition (GI)” value (MDA-MB-435) was “inactive”, the “growth inhibition (GI)” value (SN12C) was “inactive” and the “growth inhibition (GI)” value (NCI-H460) was “inactive”. The inhibition of growth at 10 µM (MDA-MB-231) was 1%, the inhibition of growth at 10 µM (MOLT-4) was 1% and the “growth inhibition (GI)” value (SW-620) was “inactive”. For the same compound, the “growth inhibition (GI)” value (NCI-H23) was “inactive”, the “growth inhibition (GI)” value (SF-268) was “inactive” and the “growth inhibition (GI)” value (KM12) was “inactive”. The inhibition of growth at 10 µM (U-251) was 6%, the “growth inhibition (GI)” value (DU-145) was “inactive” and the “growth inhibition (GI)” value (SK-OV-3) was “inactive”. For the same compound, the “growth inhibition (GI)” value (HCT-15) was “inactive”, the “growth inhibition (GI)” value (TK-10) was “inactive” and the “growth inhibition (GI)” value (OVCAR-3) was “inactive”. The “growth inhibition (GI)” value (CAKI-1) was “inactive”, the “growth inhibition (GI)” value (MCF7) was “inactive” and the inhibition of growth at 10 µM (SNB-75) was 7%. The “growth inhibition (GI)” value (NCI-H226) was “inactive”, the inhibition of growth at 10 µM (SR) was 10% and the “growth inhibition (GI)” value (A549) was “inactive”. The “growth inhibition (GI)” value (HT-29) was “inactive”, the “growth inhibition (GI)” value (LOX IMVI) was “inactive” and the “growth inhibition (GI)” value (RXF 393) was “inactive”. The “growth inhibition (GI)” value (HOP-62) was “inactive”, the inhibition of growth at 10 µM [1] was 10% and the “growth inhibition (GI)” value (SK-MEL-5) was “inactive”. For the same compound, the “growth inhibition (GI)” value (SNB-19) was “inactive”, the inhibition of growth at 10 µM (CCRF-CEM) was 8% and the “growth inhibition (GI)” value (OVCAR-5) was “inactive”. For the same compound, the inhibition of growth at 10 µM (NCI-H522) was 1%, the inhibition of growth at 10 µM (RPMI-8226) was 2% and the “growth inhibition (GI)” value (SK-MEL-2) was “inactive”. For the same compound, the inhibition of growth at 10 µM (HOP-92) was 20%, the “growth inhibition (GI)” value (SF-295) was “inactive” and the “growth inhibition (GI)” value (EKVX) was “inactive”. For the same compound, the “growth inhibition (GI)” value (COLO 205) was “inactive”, the “growth inhibition (GI)” value (SK-MEL-28) was “inactive” and the “growth inhibition (GI)” value (T47D) was “inactive”. For the same compound, the “growth inhibition (GI)” value (M14) was “inactive” and the “growth inhibition (GI)” value (Hs-578T) was “inactive”.
